# From patent US5332731A, “Cephalosporin derivatives” (Meiji Seika Kaisha, Ltd., priority 1989, dated 1994)
# Assays:
# oral toxicity in mice = conditions: mouse, in vivo, oral administration, read-out: oral dosage tolerated without exhibiting toxic symptoms
# Procedure: The new cephalosporin derivative of this invention may be administered orally at a unit dose of 100 mg to 250 mg to an adult human patient four times a day, for a guideline. However, precise dosage of the new cephalosporin is determinable through preliminary routine experiments, depending on the body weight, ages, sex and other various parameters of patients as well as the nature of the bacterial infections to be treated, and so on.
# [1] = system: Citrobacter freundii GN346/16; experiment: antibacterial activity, MIC by standard serial dilution method; assay type: cell-based
# Source text: (§1) Antibacterial activity of Compounds Nos. 1, 3, 5, 7, 9, 11, 13, 15, 17, 19, 21, 23, 25, 27, 29, 31, 33, 35 and 37 indentified hereinbefore which are the particular examples of the new cephalosporin derivative of general formula (I) according to this invention and which are in the form of the free carboxylic acid was estimated by determining the minimum inhibitory concentrations (MIC., μg/ml) of these compounds against a variety of bacteria according to a standard serial dilution method.
# [2] = system: Citrobacter freundii GN346; experiment: as above; assay type: cell-based
# Source text: as §1
# [3] = system: Enterobacter cloacae G-0008; experiment: as above; assay type: cell-based; conditions: G0008
# Source text: as §1
# [4] = system: Enterobacter cloacae GN7471; experiment: as above; assay type: cell-based
# Source text: as §1
# [5] = system: Enterobacter hirae ATCC8043; experiment: as above; assay type: cell-based
# Source text: as §1
# [6] = system: Entrobacter faecalis W-73; experiment: as above; assay type: cell-based
# Source text: as §1
# Escherichia coli 255/S-1 = experiment: as above; assay type: cell-based; conditions: 255/S1
# Source text: as §1
# Escherichia coli 255 = experiment: as above; assay type: cell-based
# Source text: as §1
# Escherichia coli GN206 = experiment: as above; assay type: cell-based
# Source text: as §1
# [7] = system: Escherichia coli NIHJ JC-2; experiment: as above; assay type: cell-based; conditions: NIHJJC2
# Source text: as §1
# [8] = system: Escherichia coli W3630 RGN823; experiment: as above; assay type: cell-based; conditions: W3630RGN823
# Source text: as §1
# [9] = system: Klebsiella pneumoniae GN69; experiment: as above; assay type: cell-based
# Source text: as §1
# [10] = system: Klebsiella pneumoniae PCI602; experiment: as above; assay type: cell-based
# Source text: as §1
# [11] = system: Marganella morganii 1510/S-1; experiment: as above; assay type: cell-based
# Source text: as §1
# Marganella morganii 1510 = experiment: as above; assay type: cell-based
# Source text: as §1
# [12] = system: Proteus vulgaris GN76/C-1; experiment: as above; assay type: cell-based
# Source text: as §1
# Proteus vulgaris GN76 = experiment: as above; assay type: cell-based
# Source text: as §1
# [13] = system: Pseudomonas aeruginosa GN10362; experiment: as above; assay type: cell-based
# Source text: as §1
# [14] = system: Serratia marcescens GN10857; experiment: as above; assay type: cell-based
# Source text: as §1
# [15] = system: Serratia marcescens No. 1; experiment: as above; assay type: cell-based
# Source text: as §1
# [16] = system: Staphylococcus aureus 209P JC-1; experiment: as above; assay type: cell-based
# Source text: as §1
# [17] = system: Staphylococcus epidermidis ATCC14990; experiment: as above; assay type: cell-based
# Source text: as §1
Structure (SMILES),MIC [1] [mg/L],MIC [2] [mg/L],MIC [3] [mg/L],MIC [4] [mg/L],MIC [5] [mg/L],MIC [6] [mg/L],MIC (Escherichia coli 255/S-1) [mg/L],MIC (Escherichia coli 255) [mg/L],MIC (Escherichia coli GN206) [mg/L],MIC [7] [mg/L],MIC [8] [mg/L],MIC [9] [mg/L],MIC [10] [mg/L],MIC [11] [mg/L],MIC (Marganella morganii 1510) [mg/L],MIC [12] [mg/L],MIC (Proteus vulgaris GN76) [mg/L],MIC [13] [mg/L],MIC [14] [mg/L],MIC [15] [mg/L],other results
"CO/N=C(\C(=O)NC1C(=O)N2C(C(=O)OCOC(=O)C(C)(C)C)=C(SCC3COCO3)CS[C@H]12)c1csc(N)n1 (stereo partly drawn) [Compound No. 30, pivaloyloxymethyl 7-[(Z)-2-(2-aminothiazol-4-yl)-2-methoxyiminoacetamido]-3-(1,3-dioxolan-4-yl) methylthio-3-cephem-4-carboxylate]",–,–,–,–,–,–,–,–,–,–,–,–,–,–,–,–,–,–,–,–,NOAEL (oral toxicity in mice): 3000 mg/kg
"CO/N=C(\C(=O)NC1C(=O)N2C(C(=O)OCOC(=O)C(C)(C)C)=C(SC3CCOC3)CS[C@H]12)c1csc(N)n1 (stereo partly drawn) [Compound No. 4, pivaloyloxymethyl 7-[(Z)-2-(2-aminothiazol-4-yl)-2-methoxyiminoacetamido]-3-(tetrahydrofuran-3-Yl) thio-3-cephem-4-carboxylate]",–,–,–,–,–,–,–,–,–,–,–,–,–,–,–,–,–,–,–,–,NOAEL (oral toxicity in mice): 3000 mg/kg
"CO/N=C(\C(=O)NC1C(=O)N2C(C(=O)O)=C(SCC3CCCCO3)CS[C@H]12)c1csc(N)n1 (stereo partly drawn) [Compound No. 23, 7-[(Z)-2-(2-aminothiazol-4-yl)-2-methoxyiminoacetamido]-3-(tetrahydropyran-2-yl)methylthio-3-cephem-4-carboxylic acid]",6.25,> 100,3.13,100,25,> 100,3.13,50,6.25,3.13,3.13,1.56,3.13,0.78,50,1.56,0.39,100,50,1.56,MIC [16]: 3.13 mg/L; MIC [17]: 3.13 mg/L
"CO/N=C(\C(=O)NC1C(=O)N2C(C(=O)O)=C(SCC3CCCO3)CS[C@H]12)c1csc(N)n1 (stereo partly drawn) [Compound No. 1, 7-[(Z)-2-(2-aminothiazol-4-yl)-2-methoxyiminoacetamido]-3-tetrahydrofurfurylthio-3-cephem-4-carboxylic acid]",3.13,> 100,1.56,50,12.5,100,0.78,25,6.25,1.56,1.56,0.39,0.78,0.39,50,3.13,0.2,> 100,100,0.78,MIC [16]: 0.2 mg/L; MIC [17]: 0.78 mg/L
Nc1nc(/C(=N/O)C(=O)NC2C(=O)N3C(C(=O)O)=C(SCC4COCO4)CSC23)cs1 (stereo not drawn) [Compound No. 35],3.13,> 100,1.56,50,12.5,12.5,0.39,50,12.5,0.39,1.56,0.05,0.39,0.2,50,100,12.5,> 100,> 100,12.5,MIC [16]: 0.39 mg/L; MIC [17]: 0.2 mg/L
"CC1(C)OCCC(CSC2=C(C(=O)O)N3C(=O)C(NC(=O)/C(=N\O)c4csc(N)n4)[C@H]3SC2)O1 (stereo partly drawn) [Compound No. 17, 7 - [(Z)-2-(2-aminothiazol-4-yl) -2-hydroxyiminoacetamido]-3-(2,2-dimethyl-1,3-dioxan-4-yl)methylthio-3-cephem-4-carboxylic acid]",12.5,> 100,12.5,> 100,25,6.25,6.25,100,25,6.25,6.25,3.13,6.25,3.13,> 100,25,3.13,> 100,> 100,12.5,MIC [16]: 0.78 mg/L; MIC [17]: 0.39 mg/L
CO/N=C(\C(=O)NC1C(=O)N2C(C(=O)O)=C(SC3COCOC3)CSC12)c1csc(N)n1 (stereo not drawn) [Compound No. 19],3.13,> 100,0.39,50,25,100,0.39,25,3.13,0.39,0.78,0.2,< 0.025,0.1,12.5,1.56,0.05,> 100,50,0.78,MIC [16]: 0.39 mg/L; MIC [17]: 0.78 mg/L
"CO/N=C(\C(=O)NC1C(=O)N2C(C(=O)OCOC(=O)C(C)(C)C)=C(SCC3CCOC3)CS[C@H]12)c1csc(N)n1 (stereo partly drawn) [Compound No. 28, pivaloyloxymethyl 7-[(Z)-2-(2-aminothiazol-4-yl)-2-methoxyiminoacetamido]-3-(tetrahydrofuran-3-yl) methylthio-3-cephem-4-carboxylate]",–,–,–,–,–,–,–,–,–,–,–,–,–,–,–,–,–,–,–,–,NOAEL (oral toxicity in mice): 3000 mg/kg
"Nc1nc(/C(=N/O)C(=O)NC2C(=O)N3C(C(=O)O)=C(SCC4CCCCO4)CS[C@H]23)cs1 (stereo partly drawn) [Compound No. 25, 7-[(Z)-2-(2-aminothiazol-4-yl)-2-hydroxyiminoacetamido]-3-(tetrahydropyran-2-yl)methylthio-3-cephem-4-carboxylic acid]",12.5,> 100,25,100,12.5,12.5,12.5,100,12.5,12.5,12.5,12.5,12.5,0.78,100,12.5,3.13,> 100,> 100,6.25,MIC [16]: 1.56 mg/L; MIC [17]: 1.56 mg/L
